Measured values published in patent US4374147A, “13-Oxo-monic acid esters useful as antibacterial and antimycoplasmal agents” (Beecham Group Limited, priority 1980, dated 1983).
Values after ≈ are worked out from the molar mass of the structure shown. Like-named read-outs stand apart in the source and are kept apart here.

Assays:
E.coli NCTC 10418 [1] = assay: MIC by serial dilution in nutrient agar (human bacteria, Table 1); type: cell-based; conditions: Escherichia coli, NCTC10418, 5% "chocolated" horse blood
E.coli ESS = assay: as above; type: cell-based; conditions: Escherichia coli, 5% "chocolated" horse blood
P. mirabilis 889 = assay: as above; type: cell-based; conditions: Proteus mirabilis, 5% "chocolated" horse blood
K. aerogenes A = assay: as above; type: cell-based; conditions: Klebsiella aerogenes, 5% "chocolated" horse blood
Ps. aeruginosa 10662 = assay: as above; type: cell-based; conditions: Pseudomonas aeruginosa, 5% "chocolated" horse blood
[2] = system: Haemophilus influenzae Q1; assay: as above; type: cell-based
[3] = system: Haemophilus influenzae Wy21; assay: as above; type: cell-based; conditions: 5% "chocolated" horse blood
[4] = system: Neisseria catarrhalis 1502; assay: as above; type: cell-based; conditions: 5% "chocolated" horse blood
Bacillus subtilis 6633 = assay: as above; type: cell-based; conditions: 5% "chocolated" horse blood
[5] = system: Corynebacterium xerosis 9755; assay: as above; type: cell-based; conditions: 5% "chocolated" horse blood
Sarcina lutea 8340 = assay: as above; type: cell-based; conditions: Micrococcus luteus, 5% "chocolated" horse blood
Staph.aureus Oxford [6] = assay: as above; type: cell-based; conditions: Staphylococcus aureus; Staph.aureus Oxford; nutrient agar, 5% "chocolated" horse blood; read-out: MIC
Staph.aureus Russell = assay: as above; type: cell-based; conditions: Staphylococcus aureus; Staph.aureus Russell; nutrient agar, 5% "chocolated" horse blood; read-out: MIC
Strep.faecalis I = assay: as above; type: cell-based; conditions: Enterococcus faecalis, 5% "chocolated" horse blood
Strep.pyogenes A 64/848 = assay: as above; type: cell-based; conditions: Streptococcus pyogenes, A64/848, 5% "chocolated" horse blood
Strep.pyogenes B 2788 = assay: as above; type: cell-based; conditions: Streptococcus pyogenes, B2788, 5% "chocolated" horse blood
Strep.pyogenes C 2761 = assay: as above; type: cell-based; conditions: Streptococcus pyogenes, C2761, 5% "chocolated" horse blood
Strep.pneumoniae CN33 = assay: as above; type: cell-based; conditions: Streptococcus pneumoniae, 5% "chocolated" horse blood
B. subtilis ATCC 6633 = assay: MIC by agar dilution (veterinary bacteria, Table 2); type: cell-based; conditions: Bacillus subtilis, ATCC6633, diagnostic sensitivity test agar, 24 hours, 37° C.
Experimental: (§1) The MIC values were determined by agar dilution using diagnostic sensitivity test agar (Oxoid) using a multipoint inoculator delivering 0.001 ml of an inoculum adjusted to give 10^7 -10^8 organisms per ml and read after 24 hours incubation at 37° C.

Bord.bronchiseptica BO8 = assay: as above; type: cell-based; conditions: Bordetella bronchiseptica, diagnostic sensitivity test agar, 24 hours, 37° C.
Experimental: as §1

Bord.bronchiseptica BO9 = assay: as above; type: cell-based; conditions: Bordetella bronchiseptica, diagnostic sensitivity test agar, 24 hours, 37° C.
Experimental: as §1

[7] = system: Corynebacterium pyogenes CY1; assay: as above; type: cell-based; conditions: Trueperella pyogenes, diagnostic sensitivity test agar, 24 hours, 37° C.
Experimental: as §1

E.coli E1 = assay: as above; type: cell-based; conditions: Escherichia coli, diagnostic sensitivity test agar, 24 hours, 37° C.
Experimental: as §1

E.coli NCTC 10418 [8] = assay: as above; type: cell-based; conditions: Escherichia coli, NCTC10418, diagnostic sensitivity test agar, 24 hours, 37° C.
Experimental: as §1

[9] = system: Erysipelothrix rhusiopathiae NCTC 8163; assay: as above; type: cell-based; conditions: NCTC8163, diagnostic sensitivity test agar, 24 hours, 37° C.
Experimental: as §1

Past.haemolytica PA5 = assay: as above; type: cell-based; conditions: Mannheimia haemolytica, diagnostic sensitivity test agar, 24 hours, 37° C.
Experimental: as §1

Past.multocida PA1 = assay: as above; type: cell-based; conditions: Pasteurella multocida, diagnostic sensitivity test agar, 24 hours, 37° C.
Experimental: as §1

Past.multocida PA2 = assay: as above; type: cell-based; conditions: Pasteurella multocida, diagnostic sensitivity test agar, 24 hours, 37° C.
Experimental: as §1

S.dublin S7 = assay: as above; type: cell-based; conditions: Salmonella enterica, diagnostic sensitivity test agar, 24 hours, 37° C.
Experimental: as §1

S.typhimurium S18 = assay: as above; type: cell-based; conditions: Salmonella enterica, diagnostic sensitivity test agar, 24 hours, 37° C.
Experimental: as §1

[10] = system: Staph.aureus 152 (pen sens); assay: as above; type: cell-based; conditions: Staphylococcus aureus, diagnostic sensitivity test agar, 24 hours, 37° C.
Experimental: as §1

[11] = system: Staph.aureus B4 (pen resis); assay: as above; type: cell-based; conditions: Staphylococcus aureus, diagnostic sensitivity test agar, 24 hours, 37° C.
Experimental: as §1

Staph.aureus Oxford [12] = assay: as above; type: cell-based; conditions: Staphylococcus aureus, diagnostic sensitivity test agar, 24 hours, 37° C.
Experimental: as §1

Strep.agalactiae SPA1 = assay: as above; type: cell-based; conditions: Streptococcus agalactiae, diagnostic sensitivity test agar, 24 hours, 37° C.
Experimental: as §1

Strep.dysgalactiae SPD1 = assay: as above; type: cell-based; conditions: Streptococcus dysgalactiae, diagnostic sensitivity test agar, 24 hours, 37° C.
Experimental: as §1

[13] = system: Strep.suis (group D) SPS11; assay: as above; type: cell-based; conditions: Streptococcus suis, diagnostic sensitivity test agar, 24 hours, 37° C.
Experimental: as §1

Strep.uberis SPU1 = assay: as above; type: cell-based; conditions: Streptococcus uberis, diagnostic sensitivity test agar, 24 hours, 37° C.
Experimental: as §1

M.dispar NCTC 10125 = assay: Anti-mycoplasmal MIC by serial dilution in Friis broth (Table 3); type: cell-based; conditions: read-out: in vitro MIC
From the text: (§2) *Determined by serial dilution in Friis broth (Friis N.F. 1975. Nord. Vet
(§3) Med. 27, 337) in microtiter plates using a modification of the metabolite
(§4) inhibition test (TaylorRobinson D. 1967. Postgrad. Med. J., 43, suppl.

M.pneumoniae 427a = assay: as above; type: cell-based; conditions: Mycoplasmoides pneumoniae, read-out: in vitro MIC
From the text: as §2, §3, §4

[14] = system: M.suipneumoniae J2206/183b; assay: as above; type: cell-based; conditions: Mesomycoplasma hyopneumoniae, read-out: in vitro MIC
From the text: as §2, §3, §4

[15] = system: Pasteurella multocida 1633; assay: MIC by serial dilution in nutrient agar (human bacteria, Table 1); type: cell-based; conditions: Pasteurella multocida, 1633
[16] = system: Neisseria flavesceus 8263; assay: MIC by serial dilution in nutrient agar (human bacteria, Table 1, footnote a); type: cell-based
From the text: | ^ a Neisseria flavesceus 8263

[17] = system: Gram-positive and Gram-negative organisms; conditions: disclosed in earlier patents; cited from earlier work
mycoplasma organisms = conditions: disclosed in earlier patents; cited from earlier work

SMILES: CC(=O)C(C)C1OC1CC1COC(C/C(C)=C/C(=O)OCCCCCCCCC(=O)O)C(O)C1O (stereo not drawn) [Example 4, Sodium 13--Oxopseudomonate A]
- MIC (E.coli NCTC 10418 [1]): > 100 mg/L
- MIC (E.coli ESS): 2.5 mg/L
- MIC (P. mirabilis 889): > 100 mg/L
- MIC (K. aerogenes A): > 100 mg/L
- MIC (Ps. aeruginosa 10662): > 100 mg/L
- MIC ([2]; Haemophilus influenzae, Q1): 0.05 mg/L
- MIC [3]: 0.1 mg/L
- MIC [4]: 0.5 mg/L
- MIC (Bacillus subtilis 6633): 0.1 mg/L
- MIC [5]: > 100 mg/L
- MIC (Sarcina lutea 8340): > 100 mg/L
- MIC (Staph.aureus Oxford [6]): 0.2 mg/L
- MIC (Staph.aureus Russell): 0.5 mg/L
- MIC (Strep.faecalis I): > 100 mg/L
- MIC (Strep.pyogenes A 64/848): 1 mg/L
- MIC (Strep.pyogenes B 2788): 1 mg/L
- MIC (Strep.pyogenes C 2761): 0.5 mg/L
- MIC (Strep.pneumoniae CN33): 0.5 mg/L
- MIC (B. subtilis ATCC 6633): > 80 mg/L
- MIC (Bord.bronchiseptica BO8): 80 mg/L
- MIC (Bord.bronchiseptica BO9): 80 mg/L
- MIC [7]: > 80 mg/L
- MIC (E.coli E1): > 80 mg/L
- MIC (E.coli NCTC 10418 [8]): > 80 mg/L
- MIC [9]: > 80 mg/L
- MIC (Past.haemolytica PA5): 10 mg/L
- MIC (Past.multocida PA1): 0.625 mg/L
- MIC (Past.multocida PA2): 0.625 mg/L
- MIC (S.dublin S7): > 80 mg/L
- MIC (S.typhimurium S18): > 80 mg/L
- MIC [10]: 1.25 mg/L
- MIC [11]: 1.25 mg/L
- MIC (Staph.aureus Oxford [12]): 1.25 mg/L
- MIC (Strep.agalactiae SPA1): 10 mg/L
- MIC (Strep.dysgalactiae SPD1): 1.25 mg/L
- MIC [13]: 20 mg/L
- MIC (Strep.uberis SPU1): 0.312 mg/L
- MIC (M.dispar NCTC 10125): 3.9 mg/L
- MIC (M.pneumoniae 427a): 250 mg/L
- MIC [14]: 31.2 mg/L

SMILES: COC(=O)CCCCCCCCOC(=O)/C=C(\C)CC1OCC(CC2OC2C(C)C(C)=O)C(O)C1O (stereo not drawn) [Example 1, Methyl 13-Oxopseudomonate A]
- MIC (E.coli NCTC 10418 [1]): > 200 mg/L
- MIC (E.coli ESS): 2 mg/L (≈ 3.9 µM)
- MIC (P. mirabilis 889): > 200 mg/L
- MIC (K. aerogenes A): > 200 mg/L
- MIC (Ps. aeruginosa 10662): > 200 mg/L
- MIC [15]: 1 mg/L (≈ 1.95 µM)
- MIC ([2]; Haemophilus influenzae Q1, nutrient agar, 5% "chocolated" horse blood, read-out: MIC): 0.5 mg/L (≈ 0.975 µM)
- MIC [3]: 0.5 mg/L (≈ 0.975 µM)
- MIC [16]: 1 mg/L (≈ 1.95 µM)
- MIC (Bacillus subtilis 6633): 0.5 mg/L (≈ 0.975 µM)
- MIC [5]: > 200 mg/L
- MIC (Sarcina lutea 8340): > 200 mg/L
- MIC (Staph.aureus Oxford [6]): 0.5 mg/L (≈ 0.975 µM)
- MIC (Staph.aureus Russell): 2 mg/L (≈ 3.9 µM)
- MIC (Strep.faecalis I): > 200 mg/L
- MIC (Strep.pyogenes A 64/848): 0.5 mg/L (≈ 0.975 µM)
- MIC (Strep.pyogenes B 2788): 10 mg/L (≈ 19.5 µM)
- MIC (Strep.pyogenes C 2761): 2 mg/L (≈ 3.9 µM)
- MIC (M.dispar NCTC 10125): 0.5 mg/L (≈ 0.975 µM)
- MIC (M.pneumoniae 427a): 250 mg/L (≈ 488 µM)
- MIC [14]: 62.5 mg/L (≈ 122 µM)

SMILES: C/C(=C\C(=O)O)CC1OCC(CC2OC2C(C)C(C)O)C(O)C1O (stereo not drawn) [monic acid A]
- antibacterial activity [17]: does not appear to have antibacterial or anti-mycoplasmal activity
- anti-mycoplasmal activity (mycoplasma organisms): does not appear to have antibacterial or anti-mycoplasmal activity
